Laboratory results: patent US20230085307A1, “PYRIDAZINONE COMPOUND AND HERBICIDE” (NISSAN CHEMICAL CORPORATION, priority 2019, published 2023)

Columns and labels:
[1] = tested on: rice flat sedge; test: Test Example 3: herbicidal effect by foliage application, Wagner pot (Table 18, symbol E); type: in vivo, rice flat sedge (Cyperus iria); conditions: 320 g/ha
Outline: (§1)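 Plants were sown in alluvial soil held under 0.1–0.5 cm standing water and grown 14 days in a greenhouse at 25–30 °C. An emulsifiable formulation, water-diluted to the set dose, was then sprayed onto the foliage, and effects were scored three weeks later using previously defined criteria.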

[2] = tested on: green foxtail; test: Test Example 5: herbicidal effect by foliage application, plastic box (Table 20, symbol G); type: in vivo, green foxtail (Setaria viridis); conditions: foliage application after 14-day growth, evaluated three weeks after application; for Herbicidal effect by foliage application, G: green foxtail: amount of applied herbicide 320 g/ha
Outline: (§2)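 Sow seeds spot-wise in sterilized diluvial soil; cover with ~1.5 cm soil. Grow 14 days in greenhouse, 25° C. to 30° C. Spray foliage with emulsion diluted to predetermined amount. Rate effect after 3 weeks.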

[3] = tested on: chickweed; test: Test Example 5: herbicidal effect by foliage application, plastic box (Table 20, symbol P); type: in vivo, common chickweed (Stellaria media); conditions: foliage application after 14-day growth, evaluated three weeks after application; for Herbicidal effect by foliage application, P: chickweed: amount of applied herbicide 320 g/ha
Outline: as §2

[4] = tested on: Japanese bulrush; test: Test Example 1: herbicidal activity, application before weed generation under submerged conditions (Table 16, symbol B); type: in vivo, Japanese bulrush (Schoenoplectus juncoides); conditions: amount of applied herbicide 320 g/ha
Outline: (§3)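 Submerged Wagner pots (alluvial soil, 4 cm water) sown with weed seeds and planted with 2.5-leaf rice seedlings; emulsifiable concentrate diluted in water applied to water surface on sowing day. Held in greenhouse at 25-30 °C; injury scored 0-5 by herbicidal rate after three weeks.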

[5] = tested on: windgrass; test: Test Example 5: herbicidal effect by foliage application, plastic box (Table 20, symbol L); type: in vivo, windgrass (Apera spica-venti); conditions: foliage application after 14-day growth, evaluated three weeks after application; for Herbicidal effect by foliage application, L: windgrass: amount of applied herbicide 320 g/ha
Outline: as §2

[6] = tested on: lambsquarters; test: Test Example 5: herbicidal effect by foliage application, plastic box (Table 20, symbol O); type: in vivo, lambsquarters (Chenopodium album); conditions: foliage application after 14-day growth, evaluated three weeks after application; for Herbicidal effect by foliage application, O: lambsquarters: amount of applied herbicide 320 g/ha
Outline: as §2

[7] = tested on: wild oat; test: Test Example 5: herbicidal effect by foliage application, plastic box (Table 20, symbol I); type: in vivo, wild oat (Avena fatua); conditions: foliage application after 14-day growth, evaluated three weeks after application; for Herbicidal effect by foliage application, I: wild oat: amount of applied herbicide 320 g/ha
Outline: as §2

[8] = tested on: southern crabgrass; test: Test Example 5: herbicidal effect by foliage application, plastic box (Table 20, symbol F); type: in vivo, southern crabgrass (Digitaria ciliaris); conditions: foliage application after 14-day growth, evaluated three weeks after application; for Herbicidal effect by foliage application, F: southern crabgrass: amount of applied herbicide 320 g/ha
Outline: as §2

[9] = tested on: barnyard grass; test: Test Example 3: herbicidal effect by foliage application, Wagner pot (Table 18, symbol H); type: in vivo, barnyard grass (Echinochloa crus-galli); conditions: 320 g/ha
Outline: as §1

[10] = tested on: blackgrass; test: Test Example 5: herbicidal effect by foliage application, plastic box (Table 20, symbol J); type: in vivo, blackgrass (Alopecurus myosuroides); conditions: foliage application after 14-day growth, evaluated three weeks after application; for Herbicidal effect by foliage application, J: blackgrass: amount of applied herbicide 320 g/ha
Outline: as §2

[11] = tested on: late watergrass; test: Test Example 1: herbicidal activity, application before weed generation under submerged conditions (Table 16, symbol A); type: in vivo, late watergrass (Echinochloa oryzicola); conditions: amount of applied herbicide 320 g/ha
Outline: as §3

[12] = tested on: barnyard grass; test: Test Example 5: herbicidal effect by foliage application, plastic box (Table 20, symbol H); type: in vivo, barnyard grass (Echinochloa crus-galli); conditions: foliage application after 14-day growth, evaluated three weeks after application; for Herbicidal effect by foliage application, H: barnyard grass: amount of applied herbicide 320 g/ha
Outline: as §2

[13] = tested on: Italian ryegrass; test: Test Example 5: herbicidal effect by foliage application, plastic box (Table 20, symbol K); type: in vivo, Italian ryegrass (Lolium multiflorum); conditions: foliage application after 14-day growth, evaluated three weeks after application; for Herbicidal effect by foliage application, K: Italian ryegrass: amount of applied herbicide 320 g/ha
Outline: as §2

[14] = tested on: oval-leafed pondweed; test: Test Example 1: herbicidal activity, application before weed generation under submerged conditions (Table 16, symbol C); type: in vivo, oval-leafed pondweed (Monochoria vaginalis); conditions: amount of applied herbicide 320 g/ha
Outline: as §3

[15] = tested on: Chinese sprangletop; test: Test Example 3: herbicidal effect by foliage application, Wagner pot (Table 18, symbol D); type: in vivo, chinese sprangletop (Leptochloa chinensis); conditions: 320 g/ha
Outline: as §1

[16] = tested on: velvetleaf; test: Test Example 5: herbicidal effect by foliage application, plastic box (Table 20, symbol M); type: in vivo, velvetleaf (Abutilon theophrasti); conditions: foliage application after 14-day growth, evaluated three weeks after application; for Herbicidal effect by foliage application, M: velvetleaf: amount of applied herbicide 320 g/ha
Outline: as §2

[17] = tested on: persian speedwell; test: Test Example 5: herbicidal effect by foliage application, plastic box (Table 20, symbol R); type: in vivo, Persian speedwell (Veronica persica); conditions: foliage application after 14-day growth, evaluated three weeks after application; for Herbicidal effect by foliage application, R: persian speedwell: amount of applied herbicide 320 g/ha
Outline: as §2

[18] = tested on: redroot pigweed; test: Test Example 5: herbicidal effect by foliage application, plastic box (Table 20, symbol N); type: in vivo, redroot pigweed (Amaranthus retroflexus); conditions: foliage application after 14-day growth, evaluated three weeks after application; for Herbicidal effect by foliage application, N: redroot pigweed: amount of applied herbicide 320 g/ha
Outline: as §2

SMILES | herbicidal effect on rice flat sedge (E) [1] | Herbicidal effect, B: Japanese bulrush [4] | herbicidal effect on barnyard grass (H) [9] | Herbicidal effect, A: late watergrass [11] | Herbicidal effect, C: oval-leafed pondweed [14] | herbicidal effect on Chinese sprangletop (D) [15] | Herbicidal effect by foliage application, G: green foxtail [2] | Herbicidal effect by foliage application, P: chickweed [3] | Herbicidal effect by foliage application, L: windgrass [5] | Herbicidal effect by foliage application, O: lambsquarters [6] | Herbicidal effect by foliage application, I: wild oat [7] | Herbicidal effect by foliage application, F: southern crabgrass [8] | Herbicidal effect by foliage application, J: blackgrass [10] | Herbicidal effect by foliage application, H: barnyard grass [12] | Herbicidal effect by foliage application, K: Italian ryegrass [13] | Herbicidal effect by foliage application, M: velvetleaf [16] | Herbicidal effect by foliage application, R: persian speedwell [17] | Herbicidal effect by foliage application, N: redroot pigweed [18] | further results
CCCC(=O)Oc1c(C)nn(C)c(=O)c1-c1c(-c2cccc(OC)c2)sc2c(Cl)cccc12 [4-065] | 3 (Herbicidal rate of 40% or more and less than 70%) | 0 (Herbicidal rate of 5% or less (almost no effect)) | 4 (Herbicidal rate of 70% or more and less than 90%) | 4 (Herbicidal rate of 70% or more and less than 90%) | 1 (Herbicidal rate of 5% or more and less than 20%) | 3 (Herbicidal rate of 40% or more and less than 70%) |  |  |  |  |  |  |  |  |  |  |  |  | herbicidal effect on G: green foxtail (evaluation grade 0-5) ([2]; 320 g/ha): 0 (Herbicidal rate of 5% or less (almost no effect)); herbicidal effect on P: chickweed (evaluation grade 0-5) ([3]; 320 g/ha): 3 (Herbicidal rate of 40% or more and less than 70%); herbicidal effect on L: windgrass (evaluation grade 0-5) ([5]; 320 g/ha): 0 (Herbicidal rate of 5% or less (almost no effect)); herbicidal effect on O: lambsquarters (evaluation grade 0-5) ([6]; 320 g/ha): 2 (Herbicidal rate of 20% or more and less than 40%); herbicidal effect on I: wild oat (evaluation grade 0-5) ([7]; 320 g/ha): 0 (Herbicidal rate of 5% or less (almost no effect)); herbicidal effect on F: southern crabgrass (evaluation grade 0-5) ([8]; 320 g/ha): 0 (Herbicidal rate of 5% or less (almost no effect)); herbicidal effect on J: blackgrass (evaluation grade 0-5) ([10]; 320 g/ha): 0 (Herbicidal rate of 5% or less (almost no effect)); herbicidal effect on H: barnyard grass (evaluation grade 0-5) ([12]; 320 g/ha): 0 (Herbicidal rate of 5% or less (almost no effect)); herbicidal effect on K: Italian ryegrass (evaluation grade 0-5) ([13]; 320 g/ha): 0 (Herbicidal rate of 5% or less (almost no effect)); herbicidal effect on M: velvetleaf (evaluation grade 0-5) ([16]; 320 g/ha): 1 (Herbicidal rate of 5% or more and less than 20%); herbicidal effect on R: persian speedwell (evaluation grade 0-5) ([17]; 320 g/ha): 3 (Herbicidal rate of 40% or more and less than 70%); herbicidal effect on N: redroot pigweed (evaluation grade 0-5) ([18]; 320 g/ha): 5 (Herbicidal rate of 90% or more (almost completely withered))
Cc1nn(C)c(=O)c(-c2c(-c3ccccc3C(F)(F)F)sc3c(Cl)cccc23)c1O [4-070] | 4 (Herbicidal rate of 70% or more and less than 90%) | 2 (Herbicidal rate of 20% or more and less than 40%) | 5 (Herbicidal rate of 90% or more (almost completely withered)) | 3 (Herbicidal rate of 40% or more and less than 70%) | 1 (Herbicidal rate of 5% or more and less than 20%) | 4 (Herbicidal rate of 70% or more and less than 90%) | 0 (Herbicidal rate of 5% or less (almost no effect)) | 5 (Herbicidal rate of 90% or more (almost completely withered)) | 0 (Herbicidal rate of 5% or less (almost no effect)) | 3 (Herbicidal rate of 40% or more and less than 70%) | 0 (Herbicidal rate of 5% or less (almost no effect)) | 0 (Herbicidal rate of 5% or less (almost no effect)) | 0 (Herbicidal rate of 5% or less (almost no effect)) | 0 (Herbicidal rate of 5% or less (almost no effect)) | 3 (Herbicidal rate of 40% or more and less than 70%) | 0 (Herbicidal rate of 5% or less (almost no effect)) | 5 (Herbicidal rate of 90% or more (almost completely withered)) | 3 (Herbicidal rate of 40% or more and less than 70%) | 
COc1ccccc1-c1sc2cc(Cl)c(Cl)cc2c1-c1c(O)c(C)nn(C)c1=O [5-041] | 3 (Herbicidal rate of 40% or more and less than 70%) | 5 (Herbicidal rate of 90% or more (almost completely withered)) | 4 (Herbicidal rate of 70% or more and less than 90%) | 0 (Herbicidal rate of 5% or less (almost no effect)) | 5 (Herbicidal rate of 90% or more (almost completely withered)) | 3 (Herbicidal rate of 40% or more and less than 70%) | 4 (Herbicidal rate of 70% or more and less than 90%) | 5 (Herbicidal rate of 90% or more (almost completely withered)) | 0 (Herbicidal rate of 5% or less (almost no effect)) | 3 (Herbicidal rate of 40% or more and less than 70%) | 0 (Herbicidal rate of 5% or less (almost no effect)) | 3 (Herbicidal rate of 40% or more and less than 70%) | 0 (Herbicidal rate of 5% or less (almost no effect)) | 3 (Herbicidal rate of 40% or more and less than 70%) | 0 (Herbicidal rate of 5% or less (almost no effect)) | 4 (Herbicidal rate of 70% or more and less than 90%) | 3 (Herbicidal rate of 40% or more and less than 70%) | 5 (Herbicidal rate of 90% or more (almost completely withered)) | 
CCOc1ccccc1-c1sc2cc(Cl)c(Cl)cc2c1-c1c(O)c(C)nn(C)c1=O [5-045] | 3 (Herbicidal rate of 40% or more and less than 70%) | 3 (Herbicidal rate of 40% or more and less than 70%) | 4 (Herbicidal rate of 70% or more and less than 90%) | 0 (Herbicidal rate of 5% or less (almost no effect)) | 0 (Herbicidal rate of 5% or less (almost no effect)) | 3 (Herbicidal rate of 40% or more and less than 70%) | 3 (Herbicidal rate of 40% or more and less than 70%) | 5 (Herbicidal rate of 90% or more (almost completely withered)) | 0 (Herbicidal rate of 5% or less (almost no effect)) | 1 (Herbicidal rate of 5% or more and less than 20%) | 0 (Herbicidal rate of 5% or less (almost no effect)) | 2 (Herbicidal rate of 20% or more and less than 40%) | 0 (Herbicidal rate of 5% or less (almost no effect)) | 3 (Herbicidal rate of 40% or more and less than 70%) | 0 (Herbicidal rate of 5% or less (almost no effect)) | 4 (Herbicidal rate of 70% or more and less than 90%) | 5 (Herbicidal rate of 90% or more (almost completely withered)) | 3 (Herbicidal rate of 40% or more and less than 70%) | 
